From patent US9920010B2, “CXCR7 receptor modulators” (IDORSIA PHARMACEUTICALS LTD, priority 2013, dated 2018)

Each compound was assayed against T1, CXCR7 (Homo sapiens, UniProt P25106) (assay: PathHunter CHO-K1 CXCR7 b-arrestin recruitment assay (CXCR7 agonistic activity)). Conditions: PathHunter CHO-K1 CXCR7 b-arrestin cell line.
T1 construct: host or cells: CHO-K1 (PathHunter CHO-K1 CXCR7 b-arrestin cell line, stably transfected)
Type: cell-based
Experimental: The CXCl12 receptor and CXCR7 agonistic activities of the compounds of formula (I) are determined in accordance with the following experimental method.
The assay is using the PathHunter™ CHO-K1 CXCR7 b-arrestin cell line from DiscoverX. The system is based on the Enzyme Fragment Complementation Technology. Two complementing fragments of the b-galactosidase enzyme are expressed within stably transfected cells. The larger portion of b-gal, termed EA for Enzyme Acceptor, is fused to the C-terminus of b-arrestin 2. The smaller fragment, termed ProLink™ tag, is fused to CXCR7 at the C-terminus. Upon activation, b-arrestin is recruited which forces the interaction of ProLink and EA, allowing complementation of the two fragments of b-gal and the formation of a functional enzyme which is capable of hydrolysing the substrate and generating a chemiluminescent signal.
CHO-K1 CXCR7 b-arrestin cells are detached from culture dishes with a cell dissociation buffer (Invitrogen, #13151-014) and collected in growing medium (F12 HAMS 90% (v/v)/FCS 10% (v/v), Penicillin/streptomycin 1% (v/v)). 5000 cells per well (in 20 μl) are seeded in a 384 well plate (white-walled, clear bottom; BD Falcon #353274). The plate is incubated at 37° C./5% CO2 for 24 hours. Medium is then replaced by 20 μl OPTIMEM (Invitrogen #31985) for 3 to 4 hours. Test compounds are dissolved at 10 mM in DMSO and serially diluted in DMSO to 200× of the final concentration for dose response curves. Compounds are then diluted 1:33.3 in HBSS1×. 5 μl/well of HBSS1×/20 mM HEPES/0.2% BSA are added to the assay plate followed by addition of 5 μl/well of diluted compounds. CXCL12 (Peprotech #300-28A) may be used as a reference agonist. The plate is incubated for 90 minutes at 37° C. 12 μl of detection reagent (Path Hunter Detection Kit, DiscoveRx, #93-0001) is transferred to the assay plate and to the plate is incubated for 1 hour at room temperature. Luminescent signal is read in a microplate reader (FLUOstar Optima, bmg). The calculated EC50 values may fluctuate depending on the daily cellular assay performance. Fluctuations of this kind are known to those skilled in the art. Average EC50 values from several measurements are given as geometric mean values.

T1 sequence (P25106 whole entry): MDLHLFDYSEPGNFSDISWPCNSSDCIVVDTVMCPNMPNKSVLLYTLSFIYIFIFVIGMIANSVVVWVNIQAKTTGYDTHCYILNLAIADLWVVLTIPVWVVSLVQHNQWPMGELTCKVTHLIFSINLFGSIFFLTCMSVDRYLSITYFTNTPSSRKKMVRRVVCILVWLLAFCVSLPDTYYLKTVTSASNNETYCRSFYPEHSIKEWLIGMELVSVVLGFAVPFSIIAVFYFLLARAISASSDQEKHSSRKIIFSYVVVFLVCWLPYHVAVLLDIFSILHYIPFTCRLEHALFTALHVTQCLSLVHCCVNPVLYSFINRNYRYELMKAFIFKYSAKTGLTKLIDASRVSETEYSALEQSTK
T1 sequence (P32121 whole entry partner): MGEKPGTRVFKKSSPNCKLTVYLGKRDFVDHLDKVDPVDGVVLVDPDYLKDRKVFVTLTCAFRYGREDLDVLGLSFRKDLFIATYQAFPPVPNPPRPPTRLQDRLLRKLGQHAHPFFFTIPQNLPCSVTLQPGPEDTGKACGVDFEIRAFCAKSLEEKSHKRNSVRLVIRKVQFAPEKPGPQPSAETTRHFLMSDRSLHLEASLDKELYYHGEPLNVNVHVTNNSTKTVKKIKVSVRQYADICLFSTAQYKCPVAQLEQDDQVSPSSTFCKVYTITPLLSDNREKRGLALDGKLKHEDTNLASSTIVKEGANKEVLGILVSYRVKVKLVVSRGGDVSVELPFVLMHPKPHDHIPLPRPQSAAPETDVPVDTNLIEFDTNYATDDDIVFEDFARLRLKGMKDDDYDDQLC

EC50 [nM]	Structure (SMILES)
189	O=C(CNc1cccc2c1CCN(CC1CC1)C2)N(Cc1ccccc1)C1CCS(=O)(=O)C1 (racemic) [Example 70, rac-N-Benzyl-2-(2-cyclopropylmethyl-1,2,3,4-tetrahydro-isoquinolin-5-ylamino)-N-(1,1-dioxo-tetrahydro-1|6-thiophen-3-yl)-acetamide]
47	CCn1ccc(C(C)N(Cc2ccccc2C(F)(F)F)C(=O)CNc2cccc3c2CCN(CC2CC2)C3)n1 (racemic) [Example 80, rac-2-(2-Cyclopropylmethyl-1,2,3,4-tetrahydro-isoquinolin-5-ylamino)-N-[1-(1-ethyl-1H-pyrazol-3-yl)-ethyl]-N-(2-trifluoromethyl-benzyl)-acetamide]
126	CCOC(=O)[C@@H]1C[C@H]1CN(Cc1ccccc1C(F)(F)F)C(=O)CNc1cccc2c1CCN(CC1CC1)C2 (racemic) [Example 81, rac-trans-2-{[[2-(2-Cyclopropylmethyl-1,2,3,4-tetrahydro-isoquinolin-5-ylamino)-acetyl]-(2-trifluoromethyl-benzyl)-amino]-methyl}-cyclopropanecarboxylic acid ethyl ester]
25	O=C(CNc1cccc2c1CCN(CC1CC1)C2)N(Cc1ccccc1)C1CCNC1 (racemic) [Example 178, rac-N-Benzyl-2-(2-cyclopropylmethyl-1,2,3,4-tetrahydro-isoquinolin-5-ylamino)-N-pyrrolidin-3-yl-acetamide]
8	CN1CCC(N(Cc2ccccc2)C(=O)CNc2cccc3c2CCN(CC2CC2)C3)C1 (racemic) [Example 180, rac-N-Benzyl-2-(2-cyclopropylmethyl-1,2,3,4-tetrahydro-isoquinolin-5-ylamino)-N-(1-methyl-pyrrolidin-3-yl)-acetamide]
2	CC1c2cccc(NCC(=O)N(CCN(C)C)Cc3ccccc3C(F)(F)F)c2CCN1CC1CC1 (racemic) [Example 211, rac-2-((2-(Cyclopropylmethyl)-1-methyl-1,2,3,4-tetrahydroisoquinolin-5-yl)amino)-N-(2-(dimethylamino)ethyl)-N-(2-(trifluoromethyl)benzyl)acetamide]
6	CC1Cc2c(cccc2NCC(=O)N(CCN(C)C)Cc2ccccc2C(F)(F)F)CN1CC1CC1 (racemic) [Example 212, rac-2-((2-(Cyclopropylmethyl)-3-methyl-1,2,3,4-tetrahydroisoquinolin-5-yl)amino)-N-(2-(dimethylamino)ethyl)-N-(2-(trifluoromethyl)benzyl)acetamide]
15	CC(O)CN(Cc1ccccc1C(F)(F)F)C(=O)CNc1cccc2c1CCN(CC1CC1)C2 (racemic) [Example 240, rac-2-(2-Cyclopropylmethyl-1,2,3,4-tetrahydro-isoquinolin-5-ylamino)-N-(2-hydroxy-propyl)-N-(2-trifluoromethyl-benzyl)-acetamide]
24	O=C(CNc1cccc2c1CCN(CC1CC1)C2)N(Cc1ccccc1C(F)(F)F)CC(O)C(F)(F)F (racemic) [Example 242, rac-2-(2-Cyclopropylmethyl-1,2,3,4-tetrahydro-isoquinolin-5-ylamino)-N-(3,3,3-trifluoro-2-hydroxy-propyl)-N-(2-trifluoromethyl-benzyl)-acetamide]
20	CN(C)CCN(Cc1ncccc1Cl)C(=O)CNc1cccc2c1CCN(C(=O)[C@@H]1C[C@@H]1F)C2 (racemic) [Example 293, rac-N-(3-Chloro-pyridin-2-ylmethyl)-N-(2-dimethylamino-ethyl)-2-[2-((1S*,2S*)-2-fluoro-cyclopropanecarbonyl)-1,2,3,4-tetrahydro-isoquinolin-5-ylamino]-acetamide]
237	O=C(CNc1cccc2c1CCN(C(=O)[C@@H]1C[C@@H]1F)C2)N(CCN1CCC(F)(F)CC1)Cc1ncccc1Cl (racemic) [Example 294, rac-N-(3-Chloro-pyridin-2-ylmethyl)-N-[2-(4,4-difluoro-piperidin-1-yl)-ethyl]-2-[2-((1S*,2S*)-2-fluoro-cyclopropanecarbonyl)-1,2,3,4-tetrahydro-isoquinolin-5-ylamino]-acetamide]
11	CN(C)CCN(Cc1ncccc1Cl)C(=O)/C=C/c1cccc2c1CCN(C(=O)[C@H]1C[C@H]1F)C2 (racemic) [Example 330, rac-(E)-N-(3-Chloro-pyridin-2-ylmethyl)-N-(2-dimethylamino-ethyl)-3-[2-((1R*,2R*)-2-fluoro-cyclopropanecarbonyl)-1,2,3,4-tetrahydro-isoquinolin-5-yl]-acrylamide]
314	CC(C)(O)CN(Cc1ncccc1Cl)C(=O)/C=C/c1cccc2c1CCN(C(=O)[C@H]1C[C@H]1F)C2 (racemic) [Example 331, rac-(E)-N-(3-Chloro-pyridin-2-ylmethyl)-3-[2-((1R*,2R*)-2-fluoro-cyclopropanecarbonyl)-1,2,3,4-tetrahydro-isoquinolin-5-yl]-N-(2-hydroxy-2-methyl-propyl)-acrylamide]
96	O=C(/C=C/c1cccc2c1CCN(C(=O)[C@H]1C[C@H]1F)C2)N(CCN1CCC(F)(F)CC1)Cc1ncccc1Cl (racemic) [Example 332, rac-(E)-N-(3-Chloro-pyridin-2-ylmethyl)-N-[2-(4,4-difluoro-piperidin-1-yl)-ethyl]-3-[2-((1R*,2R*)-2-fluoro-cyclopropanecarbonyl)-1,2,3,4-tetrahydro-isoquinolin-5-yl]-acrylamide]
32	CC(Oc1cccc2c1CCN(CC1CC1)C2)C(=O)N(CCN(C)C)Cc1ccccc1C(F)(F)F (racemic) [Example 350, rac-2-(2-Cyclopropylmethyl-1,2,3,4-tetrahydro-isoquinolin-5-yloxy)-N-(2-dimethylamino-ethyl)-N-(2-trifluoromethyl-benzyl)-propionamide]
34	CN(C)CCN(Cc1ccccc1C(F)(F)F)C(=O)CNc1cccc2c1CCN(C1CCOC1)C2 (racemic) [Example 351, rac-N-(2-Dimethylamino-ethyl)-2-[2-(tetrahydro-furan-3-yl)-1,2,3,4-tetrahydro-isoquinolin-5-ylamino]-N-(2-trifluoromethyl-benzyl)-acetamide]
11	COCC(C)N1CCc2c(cccc2NCC(=O)N(CCN(C)C)Cc2ccccc2C(F)(F)F)C1 (racemic) [Example 354, rac-N-(2-Dimethylamino-ethyl)-2-[2-(2-methoxy-1-methyl-ethyl)-1,2,3,4-tetrahydro-isoquinolin-5-ylamino]-N-(2-trifluoromethyl-benzyl)-acetamide]
10	CC(C)C(C)N1CCc2c(cccc2NCC(=O)N(CCN(C)C)Cc2ccccc2C(F)(F)F)C1 (racemic) [Example 355, rac-N-(2-Dimethylamino-ethyl)-2-[2-(1,2-dimethyl-propyl)-1,2,3,4-tetrahydro-isoquinolin-5-ylamino]-N-(2-trifluoromethyl-benzyl)-acetamide]
6	CCC(C)N1CCc2c(cccc2NCC(=O)N(CCN(C)C)Cc2ccccc2C(F)(F)F)C1 (racemic) [Example 356, rac-2-(2-sec-Butyl-1,2,3,4-tetrahydro-isoquinolin-5-ylamino)-N-(2-dimethylamino-ethyl)-N-(2-trifluoromethyl-benzyl)-acetamide]
3	CN(C)CCN(Cc1ccccc1C(F)(F)F)C(=O)CNc1cccc2c1CCN(C(=O)[C@H]1C[C@H]1F)C2 (racemic) [Example 363, rac-N-(2-Dimethylamino-ethyl)-2-[2-((1R*,2R*)-2-fluoro-cyclopropanecarbonyl)-1,2,3,4-tetrahydro-isoquinolin-5-ylamino]-N-(2-trifluoromethyl-benzyl)-acetamide]
35	CN(C)CCN(Cc1ncccc1C(F)(F)F)C(=O)CNc1cccc2c1CCN(C1CCOC1)C2 (racemic) [Example 365, rac-N-(2-Dimethylamino-ethyl)-2-[2-(tetrahydro-furan-3-yl)-1,2,3,4-tetrahydro-isoquinolin-5-ylamino]-N-(3-trifluoromethyl-pyridin-2-ylmethyl)-acetamide]
271	O=C(CNc1cccc2c1CCN(C(=O)[C@@H]1C[C@@H]1F)C2)N(Cc1ccccc1C(F)(F)F)CC1(O)CCCC1 (racemic) [Example 372, rac-2-[2-((1S*,2S*)-2-Fluoro-cyclopropanecarbonyl)-1,2,3,4-tetrahydro-isoquinolin-5-ylamino]-N-(1-hydroxy-cyclopentylmethyl)-N-(2-trifluoromethyl-benzyl)-acetamide]
14	CN(C)CCN(Cc1ccccc1C(F)(F)F)C(=O)CNc1cccc2c1CCN(C(=O)C1CC1(F)F)C2 (racemic) [Example 570, rac-2-[2-(2,2-Difluoro-cyclopropanecarbonyl)-1,2,3,4-tetrahydro-isoquinolin-5-ylamino]-N-(2-dimethylamino-ethyl)-N-(2-trifluoromethyl-benzyl)-acetamide]
